Results taken from US20090156577A1, “7-AMINO ALKYLIDENYL-HETEROCYCLIC QUINOLONES AND NAPHTHYRIDONES” (priority 2004, published 2009).
≈ marks a conversion by molar mass, not a printed value. Counter-ions that a name gives are not always drawn. Like-named read-outs stand apart in the source and are kept apart here.

Test system: pathogenic bacteria
Assay: MIC by microdilution broth method (NCCLS M7-A4), in vitro antibacterial activity
Format: cell-based
Procedure, shortened: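 MIC read after 35 °C incubation for 16–20 h relative to drug-free growth wells. Cation-adjusted Mueller-Hinton broth with two-fold compound dilutions, organisms at roughly 5×10^4 CFU/well final. Method follows NCCLS document M7-A4.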

[1] = Staphylococcus aureus, Organism A: Staphylococcus aureus OC4172, read-out: MIC
[2] = Streptococcus pneumoniae, ATCC49619, Organism E: Streptococcus pneumoniae ATCC 49619, read-out: MIC
[3] = Streptococcus pneumoniae, Organism B: fluoroquinolone-resistant clinical isolate of Streptococcus pneumoniae (QRDR amino acid substitutions)
[4] = Streptococcus pneumoniae, Organism C: fluoroquinolone-resistant clinical isolate of Streptococcus pneumoniae (QRDR amino acid substitutions)
[5] = Streptococcus pneumoniae, Organism D: fluoroquinolone-resistant clinical isolate of Streptococcus pneumoniae (QRDR amino acid substitutions)
[6] = Staphylococcus aureus, Organism A: Staphylococcus aureus OC4172
[7] = Streptococcus pneumoniae, ATCC49619, Organism E: Streptococcus pneumoniae ATCC 49619

Row | Compound | MIC [1] [µg/mL] | MIC [2] [µg/mL] | MIC [3] [µg/mL] | MIC [4] [µg/mL] | MIC [5] [µg/mL] | MIC [6] [µg/mL] | MIC [7] [µg/mL]
1 | COc1c(N2CC(=C(Cl)CO)C2)c(F)cc2c(=O)c(C(=O)O)cn(C3CC3)c12 [Compound 356, 7-[3-(1-Chloro-2-hydroxy-ethylidene)-azetidin-1-yl]-1-cyclopropyl-6-fluoro-8-methoxy-4-oxo-1,4-dihydro-quinoline-3-carboxylic Acid] | 0.06 (≈ 0.147 µM) | 0.5 (≈ 1.22 µM) | ≤ 4 | > 16 | 8 (≈ 19.6 µM) |  | 
2 | O=C(O)c1cn(C2CC2)c2nc(N3CC(=C(Cl)CO)C3)c(F)cc2c1=O [Compound 357, 7-[3-(1-Chloro-2-hydroxy-ethylidene)-azetidin-1-yl]-1-cyclopropyl-6-fluoro-4-oxo-1,4-dihydro-[1,8]naphthyridine-3-carboxylic Acid] | 0.25 (≈ 0.658 µM) | 1 (≈ 2.63 µM) | 8 (≈ 21.1 µM) | 16 (≈ 42.1 µM) | 4 (≈ 10.5 µM) |  | 
3 | NC/C(F)=C1/CCCN(c2c(F)cc3c(=O)c(C(=O)O)cn(-c4nc(N)c(F)cc4F)c3c2Cl)C1 [Compound 358, (E)-1-(6-Amino-3,5-difluoro-pyridin-2-yl)-7-[3-(2-amino-1-fluoro-ethylidene)-piperidin-1-yl]-8-chloro-6-fluoro-4-oxo-1,4-dihydro-quinoline-3-carboxylic Acid Trifluoroacetate] |  |  | 16 | 8 | 16 | 0.12 | 0.5
4 | Nc1nc(-n2cc(C(=O)O)c(=O)c3cc(F)c(N4CCC/C(=C(/F)CO)C4)c(Cl)c32)c(F)cc1F [Compound 359, (Z)-1-(6-Amino-3,5-difluoro-pyridin-2-yl)-8-chloro-6-fluoro-7-[3-(1-fluoro-2-hydroxy-ethylidene)-piperidin-1-yl]-4-oxo-1,4-dihydroquinoline-3-carboxylic Acid Trifluoroacetate] |  |  |  | 8 | 16 | 0.12 | 1
5 | CNCC(Cl)=C1CN(c2c(F)cc3c(=O)c(C(=O)O)cn(-c4nc(N)c(F)cc4F)c3c2Cl)C1 [Compound 360, 1-(6-Amino-3,5-difluoro-pyridin-2-yl)-8-chloro-7-[3-(1-chloro-2-methylamino-ethylidene)-azetidin-1-yl]-6-fluoro-4-oxo-1,4-dihydro-quinoline-3-carboxylic Acid] | 0.06 (≈ 0.117 µM) | 0.5 (≈ 0.972 µM) | 16 (≈ 31.1 µM) | 8 (≈ 15.6 µM) | 8 (≈ 15.6 µM) |  | 
6 | Nc1nc(-n2cc(C(=O)O)c(=O)c3cc(F)c(N4CC(=C(Cl)CO)C4)c(Cl)c32)c(F)cc1F [Compound 361, 1-(6-Amino-3,5-difluoro-pyridin-2-yl)-8-chloro-7-[3-(1-chloro-2-hydroxy-ethylidene)-azetidin-1-yl]-6-fluoro-4-oxo-1,4-dihydro-quinoline-3-carboxylic acid] | ≤ 0.015 | ≤ 0.015 | 0.12 (≈ 0.239 µM) | 0.12 (≈ 0.239 µM) | 0.06 (≈ 0.12 µM) |  | 
7 | C[C@H]1COc2c(N3CC(=C(Cl)CO)C3)c(F)cc3c(=O)c(C(=O)O)cn1c23 [Compound 362, (S)-9-[3-(1-Chloro-2-hydroxy-ethylidene)-azetidin-1-yl]-8-fluoro-3-methyl-6-oxo-2,3-dihydro-6H-1-oxa-3a-aza-phenalene-5-carboxylic Acid] | 0.03 (≈ 0.076 µM) | 0.5 (≈ 1.27 µM) | 8 (≈ 20.3 µM) | > 16 | 8 (≈ 20.3 µM) |  | 
8 | COc1c(N2CC(=C(Cl)CO)C2)c(F)cc2c(=O)c(C(=O)O)cn([C@@H]3C[C@@H]3F)c12 [Compound 363, 7-[3-(1-Chloro-2-hydroxy-ethylidene)-azetidin-1-yl]-6-fluoro-(1R,2S)-1-(2-fluoro-cyclopropyl)-8-methoxy-4-oxo-1,4-dihydro-quinoline-3-carboxylic Acid] | 0.03 (≈ 0.0703 µM) | 0.5 (≈ 1.17 µM) | 4 (≈ 9.37 µM) | > 16 | 16 (≈ 37.5 µM) |  | 
9 | Cc1c(F)c(N2CC(=C(Cl)CO)C2)cc2c1c(=O)c(C(=O)O)cn2C1CC1 [Compound 364, 7-[3-(1-Chloro-2-hydroxy-ethylidene)-azetidin-1-yl]-1-cyclopropyl-6-fluoro-5-methyl-4-oxo-1,4-dihydro-quinoline-3-carboxylic Acid] | 0.06 (≈ 0.153 µM) | 2 (≈ 5.09 µM) | > 16 | > 16 | > 16 |  | 
10 | C[C@H]1COc2c(N3CC(=CCN)C3)c(F)cc3c(=O)c(C(=O)O)cn1c23 [Compound 365, (S)-9-[3-(2-Amino-ethylidene)-azetidin-1-yl]-8-fluoro-3-methyl-6-oxo-2,3-dihydro-6H-1-oxa-3a-aza-phenalene-5-carboxylic Acid] | 0.12 (≈ 0.334 µM) | 2 (≈ 5.57 µM) |  | > 16 | > 16 |  | 
11 | CC(CN)=C1CN(c2c(F)cc3c(=O)c(C(=O)O)cn4c3c2OC[C@@H]4C)C1 [Compound 366, (S)-9-[3-(2-Amino-1-methyl-ethylidene)-azetidin-1-yl]-8-fluoro-3-methyl-6-oxo-2,3-dihydro-6H-1-oxa-3a-aza-phenalene-5-carboxylic Acid] | 4 (≈ 10.7 µM) | 4 (≈ 10.7 µM) |  | > 16 | 8 (≈ 21.4 µM) |  | 
12 | CC(CN)=C1CN(c2cc3c(c(C)c2F)c(=O)c(C(=O)O)cn3C2CC2)C1 [Compound 367, 7-[3-(2-Amino-1-methyl-ethylidene)-azetidin-1-yl]-1-cyclopropyl-6-fluoro-5-methyl-4-oxo-1,4-dihydro-quinoline-3-carboxylic Acid] | ≤ 0.015 | 0.12 (≈ 0.323 µM) | 0.25 (≈ 0.673 µM) | 1 (≈ 2.69 µM) | 1 (≈ 2.69 µM) |  | 
13 | COc1c(N2CC(=C(C)CN)C2)c(F)cc2c(=O)c(C(=O)O)cn([C@@H]3C[C@@H]3F)c12 [Compound 368, 7-[3-(2-Amino-1-methyl-ethylidene)-azetidin-1-yl]-6-fluoro-(1R,2S)-1-(2-fluoro-cyclopropyl)-8-methoxy-4-oxo-1,4-dihydro-quinoline-3-carboxylic Acid] | 0.25 (≈ 0.617 µM) | 1 (≈ 2.47 µM) | 8 (≈ 19.7 µM) | > 16 | 8 (≈ 19.7 µM) |  | 
14 | NCC(Cl)=C1CCN(c2c(F)c(N)c3c(=O)c(C(=O)O)cn(C4CC4)c3c2F)CC1 [Compound 369, 5-Amino-7-[4-(2-amino-1-chloro-ethylidene)-piperidin-1-yl]-1-cyclopropyl-6,8-difluoro-4-oxo-1,4-dihydro-quinoline-3-carboxylic Acid] | 0.03 (≈ 0.0684 µM) | 0.03 (≈ 0.0684 µM) | 0.06 (≈ 0.137 µM) | 0.5 (≈ 1.14 µM) | 0.12 (≈ 0.273 µM) |  | 
15 | NCC(Cl)=C1CCN(c2c(F)cc3c(=O)c(C(=O)O)cn(C4CC4)c3c2OCF)CC1 [Compound 370, 7-[4-(2-Amino-1-chloro-ethylidene)-piperidin-1-yl]-1-cyclopropyl-6-fluoro-8-fluoromethoxy-4-oxo-1,4-dihydro-quinoline-3-carboxylic Acid] | 2 (≈ 4.41 µM) | 8 (≈ 17.6 µM) | > 16 | > 16 | 16 (≈ 35.3 µM) |  | 
16 | Cc1c(N2CCC(=C(Cl)CN)CC2)c(F)cc2c(=O)c(C(=O)O)cn(C3CC3)c12 [Compound 371, 7-[4-(2-Amino-1-chloro-ethylidene)-piperidin-1-yl]-1-cyclopropyl-6-fluoro-8-methyl-4-oxo-1,4-dihydro-quinoline-3-carboxylic Acid] | ≤ 0.015 | 0.03 (≈ 0.0714 µM) | 0.06 (≈ 0.143 µM) | 0.12 (≈ 0.286 µM) | 0.12 (≈ 0.286 µM) |  | 
